Experimental findings from patent US20240217968A1, “PHARMACEUTICAL COMPOUND” (DUKE STREET BIO LIMITED, priority 2021, published 2024) are described below.

A value given as a limit tells only on which side of the number the result lay.

For this assay, the target named is T1, recombinant human Flag-tagged PARP7 (amino acids 456-657) (Homo sapiens, UniProt Q7Z3E1).
T1 construct: recombinant human Flag-tagged PARP7 (amino acids 456-657)
T1 sequence (Q7Z3E1 456-657): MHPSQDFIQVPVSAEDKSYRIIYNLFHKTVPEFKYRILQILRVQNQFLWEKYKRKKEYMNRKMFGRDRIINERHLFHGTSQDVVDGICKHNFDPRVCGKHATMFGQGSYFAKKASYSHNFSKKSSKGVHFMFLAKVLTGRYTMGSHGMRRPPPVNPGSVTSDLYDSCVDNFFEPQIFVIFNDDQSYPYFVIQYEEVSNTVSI
The assay is described as follows: PARP7 biochemical DELFIA assay (auto-MARylation). Conditions: DELFIA readout, IC50 class. In a few lines: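 Flag-PARP7 (456-657), 12.5-37.5 nM stock, captured on anti-FLAG wells, preincubated 30 min with compound, then auto-MARylated with biotin-NAD+ (15 μM stock) in HEPES pH 7.5/NaCl/DTT/BSA/Tween for 2-3 h at room temperature. NAD+ quench; Eu-streptavidin DELFIA read, Ex337/Em620 nm.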
As to `N#Cc1nn(CCOCCC(=O)N2CCN(c3ncc(C(F)(F)F)cn3)CC2)c2cn[nH]c(=O)c12` [Compound 428], the IC50 (commonly the point on the concentration scale where inhibition reaches its midpoint) is at most 100 nM.

As to `Cc1cc(CCOCCC(=O)N2CCN(c3ncc(C(F)(F)F)cn3)CC2)n2c1C(=O)NCC2` [Compound 134], the 50% inhibitory concentration (IC50) was at most 100 nM. Consider `CC1Cc2c(cn[nH]c2=O)N(CCOCCC(=O)N2CCN(c3ncc(C(F)(F)F)cn3)CC2)C1` (single isomer, unassigned) [Compound 65, 3-methyl-1-(2-(3-oxo-3-(4-(5-(trifluoromethyl)pyrimidin-2-yl)piperazin-1-yl)propoxy)ethyl)-2,3,4,6-tetrahydropyrido[2,3-d]pyridazin-5(1H)-one], for which the IC50 is at most 100 nM.

Consider `CC(COCCC(=O)N1CCN(c2cnc(C(F)(F)F)cn2)CC1)n1nc(C(F)(F)F)c2c(=O)[nH]ncc21` (stereo not shown) [Compound 267], for which the IC50 is at most 100 nM.

With `CC(COCCC(=O)N1CCN(c2ncccc2Cl)CC1)n1nc(C(F)(F)F)c2c(=O)[nH]ncc21` (single isomer, unassigned) [Compound 356], the 50% inhibitory concentration (IC50) was in the range of 100 to 1000 nM. With `CC(COCCC(=O)N1CCN(c2ncc(C(F)(F)F)cn2)CC1)n1c(=O)n(C)c2c(=O)[nH]ncc21` (stereo not shown) [Compound 397] the figure was at most 100 nM. Consider `Cc1c(C)n(CCOCCC(=O)N2CCN(c3ncc(C(F)(F)F)cn3)CC2)c2cn[nH]c(=O)c12` [Compound 230], for which the IC50 was at most 100 nM. With `CC(COCCC(=O)N1CCN(c2ncc(C(F)(F)F)s2)CC1)n1nc(C(F)(F)F)c2c(=O)[nH]ncc21` (single isomer, unassigned) [Compound 258] the figure was at most 100 nM; with `Cc1nn(C(C)COCCC(=O)N2CCN(c3ncc(Cl)cn3)CC2)c2cn[nH]c(=O)c12` (stereo not shown) [Compound 336], at most 100 nM. On to `N#Cc1ccc(N2CCN(C(=O)c3cccc(Cc4cccc5c4C(=O)NC5=O)c3)CC2)nc1` [Compound 66], for which the IC50 was 100 to 1000 nM. As for `O=C(CCOCCn1c(=O)ccc2c(=O)[nH]ncc21)N1CCN(c2ncc(C(F)(F)F)cn2)CC1` [Compound 413], the IC50 was at most 100 nM. With `CC(COCCn1cc(C(F)(F)F)c2c(=O)[nH]ncc21)C(=O)N1CCN(c2ncc(C(F)(F)F)cn2)CC1` (stereo not shown) [Compound 412] the figure was at most 100 nM; with `N#Cc1ccc(N2CCN(C(=O)c3cccc(Nc4cccc5c(=O)[nH]ncc45)c3)CC2)nc1` [Compound 30], at most 100 nM.

In the case of `CNC(=O)c1cnc(N2CCN(C(=O)CCOCC(C)n3nc(C(F)(F)F)c4c(=O)[nH]ncc43)CC2)nc1` (single isomer, unassigned) [Compound 326], the half-maximal inhibitory concentration (IC50) is at most 100 nM. With `Cc1c(C(F)(F)F)c2c(=O)[nH]ncc2n1C(C)COCCC(=O)N1CCN(c2ncc(C(F)(F)F)cn2)CC1` (stereo not shown) [Compound 474] the figure was at most 100 nM.

For `O=C(CCOCCn1nc(C(F)(F)F)c2c(=O)[nH]ncc21)N1CCN(c2nc3ccc(Cl)cc3o2)CC1` [Compound 191], the 50% inhibitory concentration (IC50) was at most 100 nM. With `CC(COCCC(=O)N1CCN(c2ncc(C(F)F)cn2)CC1)n1nc(C(F)(F)F)c2c(=O)[nH]ncc21` (stereo not shown) [Compound 264] the figure was at most 100 nM; with `O=C(CCOCCn1nc(C(F)(F)F)c2c(=O)[nH]c(=O)[nH]c21)N1CCN(c2ncc(C(F)(F)F)cn2)CC1` [Compound 401], at most 100 nM. Take `O=C(OCC1CC1Cn1nc(C(F)(F)F)c2c(=O)[nH]ncc21)N1CCN(c2ncc(C(F)(F)F)cn2)CC1` (stereo not shown) [Compound 493]: the IC50 was at most 100 nM.

Take `CC(COCCC(=O)N1CCN(c2ncc(C(F)(F)F)s2)CC1)n1nc(C(F)(F)F)c2c(=O)[nH]ncc21` (stereo not shown) [Compound 259]: the IC50 was at most 100 nM. For the molecule `CC(COCCC(=O)N1CCN(c2ccc(Cl)cn2)CC1)n1nc(C(F)(F)F)c2c(=O)[nH]ncc21` (stereo not shown) [Compound 212], the IC50 is at most 100 nM. Take `O=C(CCOCCn1c(CO)cc2c(=O)[nH]ncc21)N1CCN(c2ncc(C(F)(F)F)cn2)CC1` [Compound 125]: the IC50 is at most 100 nM.

Turning to `Cn1c(=O)n(CCOCCC(=O)N2CCN(c3ncc(C(F)(F)F)cn3)CC2)c2cn[nH]c(=O)c21` [Compound 367], the IC50 was at most 100 nM. With `CC(COCCC(=O)N1CCN(c2cnc(C(F)(F)F)cn2)CC1)n1nc(C(F)(F)F)c2c(=O)[nH]ncc21` (single isomer, unassigned) [Compound 266] the figure was at most 100 nM. With `CC(COCCc1cccc2c(=O)[nH]ncc12)C(=O)N1CCN(c2ncc(C(F)(F)F)cn2)CC1` (stereo not shown) [Compound 206] the figure was at most 100 nM; with `CC(CCOCC(=O)N1CCN(c2ncc(Cl)cn2)CC1)n1cc(C(F)(F)F)c2c(=O)[nH]ncc21` (single isomer, unassigned) [Compound 456], at most 100 nM. With `Cc1cn(C(C)COCCC(=O)N2CCN(c3ncc(C(F)(F)F)cn3)CC2)c2cn[nH]c(=O)c12` (stereo not shown) [Compound 152] the figure was at most 100 nM; with `CC(COCCC(=O)N1CCN(c2ncc(C(F)(F)F)cn2)CC1)N1CCCc2c1cn[nH]c2=O` (stereo not shown) [Compound 63], at most 100 nM; with `CC(COCCC(=O)N1CCN(c2cc(Cl)c(F)cn2)CC1)n1nc(C(F)(F)F)c2c(=O)[nH]ncc21` (single isomer, unassigned) [Compound 445], at most 100 nM. For `CC1CN(C(=O)CCOCCc2cccc3c(=O)[nH]ncc23)CCN1c1ccc(C#N)cn1` (stereo not shown) [Compound 91], the IC50 is at most 100 nM. As for `O=C1NCCc2c(CCOCCC(=O)N3CCN(c4ncc(C(F)(F)F)cn4)CC3)cccc21` [Compound 23], the IC50 lay within 100 to 1000 nM. With `N#Cc1ccc2oc(N3CCN(C(=O)CCOCCn4cc(C(F)(F)F)c5c(=O)[nH]ncc54)CC3)nc2c1` [Compound 361] the figure was at most 100 nM; with `CC(COCC(=O)NC1CCN(c2ncc(C(F)(F)F)cn2)CC1)n1nc(C(F)(F)F)c2c(=O)[nH]ncc21` (single isomer, unassigned) [Compound 479, 2-(2-(4-oxo-3-(trifluoromethyl)-4,5-dihydro-1H-pyrazolo[3,4-d]pyridazin-1-yl)propoxy)-N-(1-(5-(trifluoromethyl)pyrimidin-2-yl)piperidin-4-yl) acetamide], at most 100 nM.

Take `CC(COCCC(=O)N1CCN(c2ncc(C#N)s2)CC1)n1nc(C(F)(F)F)c2c(=O)[nH]ncc21` (stereo not shown) [Compound 283]: the IC50 is at most 100 nM. `O=C(c1cccc(Cc2cccc3c(=O)[nH]ncc23)c1)N1CCN(c2ncc(C(F)(F)F)cn2)CC1` [Compound 25]: the IC50 was at most 100 nM. Consider `O=C(CCOCCc1cccc2c(=O)[nH]ncc12)N1CCN(c2nc3ccccc3[nH]2)CC1` [Compound 213], for which the IC50 was at most 100 nM.

As for `CC(COCCC(=O)N1CCN(c2ncc(C#N)o2)CC1)n1nc(C(F)(F)F)c2c(=O)[nH]ncc21` (stereo not shown) [Compound 329], the IC50 is at most 100 nM. With `O=C(CCOCCn1c(C(F)(F)F)cc2c(=O)[nH]ncc21)N1CCN(c2ncc(C(F)(F)F)cn2)CC1` [Compound 60, 1-(2-(3-oxo-3-(4-(5-(trifluoromethyl)pyrimidin-2-yl)piperazin-1-yl)propoxy)ethyl)-2-(trifluoromethyl)-1,5-dihydro-4H-pyrrolo[2,3-d]pyridazin-4-one] the figure was at most 100 nM; with `O=C1NCCc2c(OCCOCC(=O)N3CCN(c4ncc(C(F)(F)F)cn4)CC3)cccc21` [Compound 22], 1000 to 10000 nM; with `O=C(NCCOc1cccc2c(=O)[nH]ncc12)N1CCN(c2ncc(C(F)(F)F)cn2)CC1` [Compound 58], 100 to 1000 nM.
